The source of these data is US8530489B2 (Vertex Pharmaceuticals Incorporated, priority 2006, dated 2013).

Bounds are passed on as bounds.

PLK1, sequence (P53350 whole entry): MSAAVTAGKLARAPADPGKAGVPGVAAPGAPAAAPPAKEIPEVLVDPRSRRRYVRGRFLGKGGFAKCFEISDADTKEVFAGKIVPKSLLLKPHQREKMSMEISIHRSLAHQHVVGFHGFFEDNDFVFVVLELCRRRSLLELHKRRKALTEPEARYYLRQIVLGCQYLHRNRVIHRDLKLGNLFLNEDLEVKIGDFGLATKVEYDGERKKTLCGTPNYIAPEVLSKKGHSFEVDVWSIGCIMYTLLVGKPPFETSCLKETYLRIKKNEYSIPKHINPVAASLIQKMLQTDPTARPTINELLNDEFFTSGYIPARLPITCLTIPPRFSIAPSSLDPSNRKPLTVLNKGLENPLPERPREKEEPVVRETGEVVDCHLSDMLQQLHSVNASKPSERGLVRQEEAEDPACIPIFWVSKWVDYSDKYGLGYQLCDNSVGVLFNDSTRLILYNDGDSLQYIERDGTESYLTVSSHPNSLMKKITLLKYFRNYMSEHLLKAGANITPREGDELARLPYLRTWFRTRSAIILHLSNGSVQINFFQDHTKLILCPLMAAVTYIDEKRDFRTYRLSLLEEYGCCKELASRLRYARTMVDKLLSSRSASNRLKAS

This assay concerns the target PLK1 (Homo sapiens, UniProt P53350). The experiment in a line: PLK1 Inhibition Assay I (radioactive-phosphate incorporation). The settings on record: Ki(app); PLK1 Inhibition Assay I or II (table does not say which). It is filed as biochemical. On the procedure:
The compounds of the present invention are evaluated as inhibitors of human PLK kinase using the following assays.
Compounds were screened for their ability to inhibit PLK1 using a radioactive-phosphate incorporation assay. Assays were carried out in a mixture of 25 mM HEPES (pH 7.5), 10 mM MgCl2, and 1 mM DTT. Final substrate concentrations were 350 μM [γ-33P]ATP (136 mCi 33P ATP/mmol ATP, Amersham Pharmacia Biotech/Sigma Chemicals) and 450 μM peptide (KKKISDELMDATFADQEAK) [SEQ. ID:1]. Assays were carried out at 25° C. in the presence of 2 nM PLK1. An assay stock buffer solution was prepared containing all of the reagents listed above, with the exception of ATP and the test compound of interest. 30 μL of the stock solution was placed in a 96 well plate followed by addition of 2 μL of DMSO stock containing serial dilutions of the test compound (typically starting from a final concentration of 10 μM with 2-fold serial dilutions) in duplicate (final DMSO concentration 5%). The plate was pre-incubated for 10 minutes at 25° C. and the reaction initiated by addition of 8 μL [γ-33P]ATP (final concentration 350 μM).
The reaction was stopped after 240 minutes by the addition of 100 μL 0.14M phosphoric acid. A multiscreen phosphocellulose filter 96-well plate (Millipore, Cat No. MAPHN0B50) was pretreated with 100 μL 0.1 M phosphoric acid prior to the addition of 125 μL of the stopped assay mixture. The plate was washed with 4×200 μL 0.1 M phosphoric acid. After drying, 100 μL Optiphase ‘SuperMix’ liquid scintillation cocktail (Perkin Elmer) was added to the well prior to scintillation counting (1450 Microbeta Liquid Scintillation Counter, Wallac).
After removing mean background values for all of the data points, Ki(app) data were calculated from non-linear regression analysis of the initial rate data using the Prism software package (GraphPad Prism version 3.0cx for Macintosh, GraphPad Software, San Diego Calif., USA).
Regarding `C[C@@H](Nc1ncc(C#N)c(-c2c[nH]c3ncc(C(F)(F)F)cc23)n1)c1ccc(CO)cc1` [Compound I-185, 2-((R)-1-(4-(hydroxymethyl)phenyl)ethylamino)-4-(5-(trifluoromethyl)-1H-pyrrolo[2,3-b]pyridin-3-yl)pyrimidine-5-carbonitrile], the Ki is less than 3 nM.

In the case of `C[C@@H](Nc1ncc(C#N)c(-c2c[nH]c3ncc(C(F)(F)F)cc23)n1)c1ccc2ccccc2c1` [Compound I-31, 2-((R)-1-(naphthalen-2-yl)ethylamino)-4-(5-(trifluoromethyl)-1H-pyrrolo[2,3-b]pyridin-3-yl)pyrimidine-5-carbonitrile], the Ki fell in the range of 3 to 40 nM.

Take `Cc1ccc(C)c(CNc2ncc(C#N)c(-c3c[nH]c4ncc(C(F)(F)F)cc34)n2)c1` [Compound I-60, 2-(2,5-dimethylbenzylamino)-4-(5-(trifluoromethyl)-1H-pyrrolo[2,3-b]pyridin-3-yl)pyrimidine-5-carbonitrile]: the Ki was 3 to 40 nM.

`CSc1ncc(C#N)c(-c2c[nH]c3ncc(C(F)(F)F)cc23)n1` [II-1, 2-(methylthio)-4-(5-(trifluoromethyl)-1H-pyrrolo[2,3-b]pyridin-3-yl)pyrimidine-5-carbonitrile]: the Ki was more than 40 nM.

Consider `N#Cc1cnc(NCCC2CCCCN2)nc1-c1c[nH]c2ncc(C(F)(F)F)cc12` (stereo not drawn) [Compound I-68, 2-(2-(piperidin-2-yl)ethylamino)-4-(5-(trifluoromethyl)-1H-pyrrolo[2,3-b]pyridin-3-yl)pyrimidine-5-carbonitrile], for which the Ki was more than 40 nM.

`CC(Nc1ncc(C#N)c(-c2c[nH]c3ncc(C(F)(F)F)cc23)n1)C1CCN(CC#N)CC1` (stereo not drawn) [Compound I-166, 2-(1-(1-(cyanomethyl)piperidin-4-yl)ethylamino)-4-(5-(trifluoromethyl)-1H-pyrrolo[2,3-b]pyridin-3-yl)pyrimidine-5-carbonitrile]: the Ki is less than 3 nM.

Take `C[C@@H](Nc1ncc(C#N)c(-c2c[nH]c3ncc(C(F)(F)F)cc23)n1)C1CCN(C(=O)CN)CC1` [Compound I-210, 2-((R)-1-(1-(2-aminoacetyl)piperidin-4-yl)ethylamino)-4-(5-(trifluoromethyl)-1H-pyrrolo[2,3-b]pyridin-3-yl)pyrimidine-5-carbonitrile]: the Ki is less than 3 nM.

On to `CCN(CC)CCN(C)c1ccc([C@@H](C)Nc2ncc(C#N)c(-c3c[nH]c4ncc(C(F)(F)F)cc34)n2)cn1` [Compound I-287, 2-((R)-1-(6-((2-(diethylamino)ethyl)(methyl)amino)pyridin-3-yl)ethylamino)-4-(5-(trifluoromethyl)-1H-pyrrolo[2,3-b]pyridin-3-yl)pyrimidine-5-carbonitrile], for which the Ki was 3 to 40 nM.

Turning to `C[C@@H](Nc1ncc(C#N)c(-c2c[nH]c3ncc(C(F)(F)F)cc23)n1)C1CCN(C(=O)CCN)CC1` [Compound I-224, 2-((R)-1-(1-(3-aminopropanoyl)piperidin-4-yl)ethylamino)-4-(5-(trifluoromethyl)-1H-pyrrolo[2,3-b]pyridin-3-yl)pyrimidine-5-carbonitrile], the Ki was less than 3 nM.

Turning to `CC(Nc1ncc(C#N)c(-c2c[nH]c3ncc(C(F)(F)F)cc23)n1)[C@H]1C[C@@H](O)C1` (stereo partly drawn) [Compound I-270, 2-((S)-1-((1s,3R)-3-hydroxycyclobutyl)ethylamino)-4-(5-(trifluoromethyl)-1H-pyrrolo[2,3-b]pyridin-3-yl)pyrimidine-5-carbonitrile], the Ki was less than 3 nM.

With `CC(=O)N1CCC(C(C)Nc2ncc(C#N)c(-c3c[nH]c4ncc(C(F)(F)F)cc34)n2)CC1` (stereo not drawn) [Compound I-101, 2-(1-(1-acetylpiperidin-4-yl)ethylamino)-4-(5-(trifluoromethyl)-1H-pyrrolo[2,3-b]pyridin-3-yl)pyrimidine-5-carbonitrile], the Ki was less than 3 nM.

Consider `N#Cc1cnc(N[C@@H]2CC3CC[C@@H]2C3)nc1-c1c[nH]c2ncc(C(F)(F)F)cc12` [Compound I-65, 2-((1R,2R)-bicyclo[2.2.1]heptan-2-ylamino)-4-(5-(trifluoromethyl)-1H-pyrrolo[2,3-b]pyridin-3-yl)pyrimidine-5-carbonitrile], for which the Ki was 3 to 40 nM.

Consider `C[C@@H](N)C(=O)N1CCC([C@@H](C)Nc2ncc(C#N)c(-c3c[nH]c4ncc(C(F)(F)F)cc34)n2)CC1` [Compound I-225, 2-((R)-1-(1-((R)-2-aminopropanoyl)piperidin-4-yl)ethylamino)-4-(5-(trifluoromethyl)-1H-pyrrolo[2,3-b]pyridin-3-yl)pyrimidine-5-carbonitrile], for which the Ki was less than 3 nM.

As to `CNCCCN(C)c1ccc([C@@H](C)Nc2ncc(C#N)c(-c3c[nH]c4ncc(C(F)(F)F)cc34)n2)cn1` [Compound I-289, 2-((R)-1-(6-(methyl(3-(methylamino)propyl)amino)pyridin-3-yl)ethylamino)-4-(5-(trifluoromethyl)-1H-pyrrolo[2,3-b]pyridin-3-yl)pyrimidine-5-carbonitrile], the Ki is less than 3 nM.

For `CC(C)[C@H](CN1CCOCC1)Nc1ncc(C#N)c(-c2c[nH]c3ncc(C(F)(F)F)cc23)n1` [Compound I-128, 2-((R)-3-methyl-1-morpholinobutan-2-ylamino)-4-(5-(trifluoromethyl)-1H-pyrrolo[2,3-b]pyridin-3-yl)pyrimidine-5-carbonitrile], the Ki was 3 to 40 nM.

For `COc1ccc(CNc2ncc(C#N)c(-c3c[nH]c4ncc(C(F)(F)F)cc34)n2)cc1Cl` [Compound I-94, 2-(3-chloro-4-methoxybenzylamino)-4-(5-(trifluoromethyl)-1H-pyrrolo[2,3-b]pyridin-3-yl)pyrimidine-5-carbonitrile], the Ki lay in the range of 3 to 40 nM.

For `CC(C)(Nc1ncc(C#N)c(-c2c[nH]c3ncc(C(F)(F)F)cc23)n1)C(=O)NCCC(F)(F)F` [IA-1, 2-(5-cyano-4-(5-(trifluoromethyl)-1H-pyrrolo[2,3-b]pyridin-3-yl)pyrimidin-2-ylamino)-2-methyl-N-(3,3,3-trifluoropropyl)propanamide], the Ki is more than 40 nM.

Regarding `C[C@@H](Nc1ncc(C#N)c(-c2c[nH]c3ncc(C(F)(F)F)cc23)n1)c1ccc(OC2CCN(C)CC2)cc1` [Compound I-154, 2-((R)-1-(4-(1-methylpiperidin-4-yloxy)phenyl)ethylamino)-4-(5-(trifluoromethyl)-1H-pyrrolo[2,3-b]pyridin-3-yl)pyrimidine-5-carbonitrile], the Ki was 3 to 40 nM.

Turning to `CC(C)(Nc1ncc(C#N)c(-c2c[nH]c3ncc(Cl)cc23)n1)C(=O)NC1CCCCC1` [IA-5, 2-(4-(5-chloro-1H-pyrrolo[2,3-b]pyridin-3-yl)-5-cyanopyrimidin-2-ylamino)-N-cyclohexyl-2-methylpropanamide], the Ki is 3 to 40 nM.

`CC(Nc1ncc(C#N)c(-c2c[nH]c3ncc(C(F)(F)F)cc23)n1)c1ccc(N2CCC(F)CC2)nc1` (stereo not drawn) [Compound I-199, 2-(1-(6-(4-fluoropiperidin-1-yl)pyridin-3-yl)ethylamino)-4-(5-(trifluoromethyl)-1H-pyrrolo[2,3-b]pyridin-3-yl)pyrimidine-5-carbonitrile]: the Ki lay in the range of 3 to 40 nM.

Consider `N#Cc1cnc(NC2CCC(O)CC2)nc1-c1c[nH]c2ncc(C(F)(F)F)cc12` (stereo not drawn) [Compound I-95, 2-(4-hydroxycyclohexylamino)-4-(5-(trifluoromethyl)-1H-pyrrolo[2,3-b]pyridin-3-yl)pyrimidine-5-carbonitrile], for which the Ki is 3 to 40 nM.
